Columns and labels:
TNF-α = experiment: serum inflammatory cytokine TNF-α in TNBS-induced ulcerative colitis mice; type: in vivo
PPAR-γ = experiment: amount of PPAR-γ expressed in colon tissue; type: in vivo; conditions: TNBS-induced mice
Description: Peroxisome proliferator-activated receptor γ (PPAR-γ) may have anti-inflammatory effects by inhibiting the expression of transcription factors NF-κB, AP-1 and other related genes, have the effects of reducing the expression of inflammatory factors and adhesion molecules, and play important role for maintaining the integrity of the intestinal mucosa. Studies have shown that, when IBD occurred, the in vivo expression of PPAR-γ would be reduced in some extent.

[1] = test system: p65 subunit in the NF-κB signaling pathway; experiment: Western blotting of p-p65 and p65 in colonic tissues; type: in vivo, mice; conditions: compared with the model group
Description: NF-κB, as a key transcription factor regulating the release of inflammatory cytokines, plays an important role in the complex cytokine dysregulation network of IBD. To investigate whether the inhibitory effect of AL-1 on the expression of inflammatory cytokines TNF-α, IL-6 and IL-1β is related to the activation of NF-κB signaling pathway, the present inventors used Western blotting to detect the expression of p-p65 and p65 in colonic tissues.

COX-2 = experiment: expression of COX-2 in colon tissue; type: in vivo; conditions: TNBS-induced mice
Description: Cyclooxygenase-2 (COX-2) is undetectable in normal human colonic epithelial cells, but the presence of a large amount of COX-2 can be detectable in the intestinal mucosal epithelial cells of CD patients and UC patients. Such high expression can cause elevated expression of pro-inflammatory substance of prostaglandin, and promote IBD epithelial congestion and edema.

[2] = test system: TNBS-induced ulcerative colitis mice; experiment: morphological observation of the colon of TNBS-induced ulcerative colitis mice; type: in vivo
Description: In the TNBS model group mice, the lesions of the colon were obvious, the colon was shortened, the proximal colon was dilated with indication of obstructive lesions, and the distal intestine became narrowed with indication of ulceration with congestion, edema, erosion and intestinal wall thickening.

[3] = test system: TNBS-induced ulcerative colitis mice; experiment: colon length of TNBS-induced ulcerative colitis mice; type: in vivo; conditions: three days after TNBS enema
IL-6 = experiment: serum inflammatory cytokine IL-6 in TNBS-induced ulcerative colitis mice; type: in vivo
myeloperoxidase (MPO) = experiment: MPO activity test in colon tissue of TNBS-induced ulcerative colitis mice; type: in vivo
Description: It can be seen from the results of MPO activity test in colonic tissues that the content of MPO in normal tissue was very low, the neutrophil infiltration was obvious in model group treated with TNBS, and the content of MPO increased obviously, being twice as that in normal group.

[4] = test system: TNBS-induced ulcerative colitis mice; experiment: histopathological observation (HE staining, CMDI) of the colon of TNBS-induced ulcerative colitis mice; type: in vivo
Description: Colon tissues were paraffin-embedded and sliced in parallel with HE staining.

[5] = test system: TNBS-induced ulcerative colitis mice; experiment: body weight of TNBS-induced ulcerative colitis mice; type: in vivo
Description: The mice of normal control group were shown lively, body hair shiny, and weight continued to increase. The model mice after TNBS enema appeared to be apathetic and lazy with body hair messy and less luster, and with water intake being reduced. The model mice were also shown continuing decrease in body weight, with an average weight loss of 17.9% on the third day compared with that before rectal perfusion.

[6] = test system: TNBS-induced ulcerative colitis mice; experiment: disease activity index (DAI) of TNBS-induced ulcerative colitis mice; type: in vivo; conditions: third day after enema
IL-1β = experiment: serum inflammatory cytokine IL-1β in TNBS-induced ulcerative colitis mice; type: in vivo
[7] = first 60 minutes of the reaction, in vitro; cited from earlier work

Structure (SMILES): C=C1CCC2[C@@](C)(CC[C@@H](O)[C@@]2(C)CO)C1C/C=C1/C(=O)OCC1OC(=O)CCCCC1CCSS1 (stereo partly shown) [AL-1]
- serum level of TNF-α (TNF-α; AL-1 5, 15, 45 mg/kg): significantly lessen the increase
- expression of PPAR-γ in colon tissue (PPAR-γ): significantly increased the expression of PPAR-γ
- phosphorylation level of p65 in colonic tissue [1]: significantly reduce the phosphorylation level of p65
- COX-2 expression level in colon tissue (COX-2): effectively inhibit the increase of COX-2 expression level
- colon morphology ([2]; AL-1 5, 15 and 45 mg/kg): significant reduction of the symptoms
- colon length ([3]; AL-1 5, 15 and 45 mg/kg): enhanced the colonic length
- serum level of IL-6 (IL-6; AL-1 5, 15, 45 mg/kg): significantly lessen the increase
- MPO content in the colon tissue (myeloperoxidase (MPO); AL-1 5, 15 and 45 mg/kg): lessen in a dose-dependent manner the increase of the MPO content
- colon histopathology (HE staining) ([4]; 5 mg/kg): obvious myositis cell infiltration of mucosa and submucosa but in much less extent as compared with the model groups
- colon histopathology (HE staining) ([4]; 15 mg/kg): myositis cell infiltration was reduced
- colon histopathology (HE staining) ([4]; 45 mg/kg): significant reduction in the amount of myositis cell infiltration of mucosa and submucosa
- CMDI (tissue damage) ([4]; AL-1 5, 15 and 45 mg/kg): improve tissue damage in a dose-dependent manner
- body weight increase on average compared with the model group ([5]; AL-1 45 mg/kg, third day): 4.65%
- average DAI score ([6]; 5 mg/kg): 6.00
- average DAI score ([6]; 15 mg/kg): 6.25
- average DAI score ([6]; 45 mg/kg): 4.00
- serum level of IL-1β (IL-1β; AL-1 5, 15, 45 mg/kg): significantly lessen the increase
- binding rate with the sulfydryl group of GSH relative to Andro [7]: 7 times

Structure (SMILES): Nc1ccc(O)c(C(=O)O)c1 [Mesalazine, reference compound]
- serum level of TNF-α (TNF-α; Mesalazine): significantly lessen the increase
- expression of PPAR-γ in colon tissue (PPAR-γ): significantly increased the expression of PPAR-γ
- phosphorylation level of p65 in colonic tissue [1]: significantly reduce the phosphorylation level of p65
- COX-2 expression level in colon tissue (COX-2): effectively inhibit the increase of COX-2 expression level
- colon morphology ([2]; Mesalazine group): improvement on colon injury
- improvement of colon length ([3]; Mesalazine, compared with the model groups): not significant
- serum level of IL-6 (IL-6; Mesalazine): significantly lessen the increase
- MPO content in the colon tissue (myeloperoxidase (MPO); Mesalazine, P<0.01): obviously reduce the content of MPO
- colon histopathology (HE staining) ([4]; 100 mg/kg): obvious relief of myositis cell infiltration
- CMDI (mucosal injury) ([4]; Mesalazine): significant effect to improve mucosal injury
- body weight of the mice ([5]; Mesalazine, from the second day after modeling, P<0.05): significantly increased body weight
- average DAI score ([6]; 100 mg/kg): 5.13
- serum level of IL-1β (IL-1β; Mesalazine): significantly lessen the increase

Source: patent US11903923B2, “Use of andrographolide derivatives in preparation of medicaments for preventing and treating inflammatory bowel diseases” (GUANGZHOU MAGPIE PHARMACEUTICALS CO., LTD., priority 2015, dated 2024)
